Reference: EP4786487A1, “PEPTIDE” (Peptidream Inc, priority 2023, dated 2025)
Read-outs that look alike come from different tables or passages of the source. Starred links: 1 amine or outer side, 2 acyl side, 3 side chain; linkers in the order of their positions; H or OH if unused. Positions of bridges follow the written chain, without caps; N, C: chain ends. Non-standard residues stand in square brackets, D forms with d. Residues, ends and D or L forms follow the SMILES beside them. X16 = O=C([C@H](Cc1c[nH]c2c(-c3cccc(Cl)c3)cccc12)N[*:1])[*:2]; X6 = CS(=O)(=O)c1ccc(-c2ccc(C[C@H](N[*:1])C(=O)[*:2])cc2)cc1; X3 = O=C(O)COc1ccccc1-c1ccc(C[C@H](N[*:1])C(=O)[*:2])cc1; Phe(3-OCH2COOH) = N[C@@H](Cc1cccc(OCC(=O)O)c1)C(=O)O; Trp(6-OH) = N[C@@H](Cc1c[nH]c2cc(O)ccc12)C(=O)O; Phe(4-COOH) = N[C@@H](Cc1ccc(C(=O)O)cc1)C(=O)O; Gly(N(CH2)3COOH) = O=C(O)CCCNCC(=O)O; X1 = CCCCCCC[C@H](N[*:1])C(=O)[*:2]; NMeF = CN[C@@H](Cc1ccccc1)C(=O)O; NMeA = CN[C@@H](C)C(=O)O

Experiments:
[1] = biological target: T1, Myostatin (Homo sapiens, UniProt O14793); test: HepG2 reporter gene assay, Evaluation Procedure (2): 2-concentrations assay, myostatin inhibition; assay type: cell-based
T1 construct: active myostatin (also called mature myostatin) is a homodimer consisting of two C-terminal growth factor domains; purchased R&D systems 788-G8/CF
T1 sequence (O14793 267-375): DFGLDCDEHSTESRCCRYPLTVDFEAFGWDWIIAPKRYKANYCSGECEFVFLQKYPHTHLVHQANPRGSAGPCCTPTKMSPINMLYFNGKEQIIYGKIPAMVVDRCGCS
In short: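 HepG2 cells (HB-8065, ATCC) carrying the transfected pGL3(CAGA)12-luc reporter plasmid were treated with myostatin (788-G8/CF, R&D systems) at a final concentration of 10 ng/mL plus peptide and incubated at 37°C, 5% CO2 for 20 to 24 hours. Luminescence was read after adding PBS mixed 1:1 with One-Glo substrate, and inhibition rate was calculated.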

[2] = biological target: T2, GDF-11 (Homo sapiens, UniProt O95390); test: HepG2 reporter gene assay, Evaluation Procedure (2): 2-concentrations assay, GDF-11 inhibition; assay type: cell-based
T2 construct: purchased R&D systems 1958-GD-G8/CF
T2 sequence (O95390 299-407): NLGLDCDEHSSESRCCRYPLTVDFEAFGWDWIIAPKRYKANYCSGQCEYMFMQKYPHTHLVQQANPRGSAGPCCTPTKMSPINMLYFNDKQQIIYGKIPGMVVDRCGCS
In short: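 HepG2 cells carrying the transfected pGL3(CAGA)12-luc reporter, a pGL3 vector with luciferase placed downstream of 12 CAGA repeats, were stimulated with GDF-11 at a final 10 ng/mL together with test peptide. Blank wells received no GDF-11 and no peptide. Plates were incubated 20 to 24 hours at 37°C with 5% CO2. Luminescence from One-Glo substrate was read to calculate percent inhibition.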

[3] = HepG2, read-out: inhibition rate (myostatin inhibition assay)
[4] = HepG2, read-out: inhibition rate (GDF-11 inhibition assay), Table 7-3/7-4, GDF-11 10 ng/mL, peptide at the higher of the 2 concentrations
[5] = HepG2, read-out: inhibition rate (GDF-11 inhibition assay), Table 7-3/7-4, GDF-11 10 ng/mL, peptide at the lower of the 2 concentrations

Row | inhibition at 0.1 µM ([1]; Table 7-3/7-4, myostatin 10 ng/mL, peptide at the higher of the 2 concentrations, HepG2, read-out: inhibition rate (myostatin inhibition assay)) | inhibition at 0.03 µM ([1]; Table 7-3/7-4, myostatin 10 ng/mL, peptide at the lower of the 2 concentrations, HepG2, read-out: inhibition rate (myostatin inhibition assay)) | inhibition ([2]; HepG2, first GDF-11 column of Table 7-3/7-4, GDF-11 10 ng/mL, peptide at the lower of the 2 concentrations, read-out: inhibition rate (GDF-11 inhibition assay)) | inhibition ([2]; HepG2, second GDF-11 column of Table 7-3/7-4, GDF-11 10 ng/mL, peptide at the higher of the 2 concentrations, read-out: inhibition rate (GDF-11 inhibition assay)) | Structure (SMILES) | inhibition at 0.03 µM [1, 3] | inhibition at 0.1 µM [1, 3] | inhibition [2, 4] | inhibition [2, 5]
1 |  |  |  |  | CCCCCCC[C@@H]1NC(=O)[C@H](Cc2ccccc2)N(C)C(=O)[C@H](CCCNC(=N)N)NC(=O)[C@H](Cc2ccc(C(=O)O)cc2)NC(=O)[C@H](Cc2cccc(OCC(=O)O)c2)NC(=O)[C@H](C)N(C)C(=O)[C@H]([C@@H](C)CC)NC(=O)[C@H](Cc2ccccc2)N(C)C(=O)[C@H](Cc2ccc(O)cc2)NC(=O)[C@H](Cc2ccc(-c3ccc(S(C)(=O)=O)cc3)cc2)NC(=O)[C@H](C)NC(=O)CN(CCCC(=O)O)C(=O)CSC[C@H](C(=O)O)NC(=O)[C@H](Cc2ccccc2)N(C)C(=O)[C@H](C)N(C)C1=O [Myostatin_99_v370] ({CH2CO}-[Gly(N(CH2)3COOH)]A[X6]Y[NMeF]I[NMeA][Phe(3-OCH2COOH)][Phe(4-COOH)]R[NMeF][X1][NMeA][NMeF][dC]-OH; thioether N-15) | 100% | 100% | 0% | 0%
2 |  |  |  |  | CCCCCCC[C@@H]1NC(=O)[C@H](Cc2ccccc2)N(C)C(=O)[C@H](CCCNC(=N)N)NC(=O)[C@H](Cc2ccc(C(=O)O)cc2)NC(=O)[C@H](Cc2ccc(-c3ccccc3OCC(=O)O)cc2)NC(=O)[C@H](C)N(C)C(=O)[C@H]([C@@H](C)CC)NC(=O)[C@H](Cc2ccccc2)N(C)C(=O)[C@H](Cc2ccc(O)cc2)NC(=O)[C@H](Cc2c[nH]c3ccccc23)NC(=O)[C@H](C)NC(=O)CN(CCCC(=O)O)C(=O)CSC[C@H](C(=O)O)NC(=O)[C@H](Cc2ccccc2)N(C)C(=O)[C@H](C)N(C)C1=O [Myostatin_99_v371] ({CH2CO}-[Gly(N(CH2)3COOH)]AWY[NMeF]I[NMeA][X3][Phe(4-COOH)]R[NMeF][X1][NMeA][NMeF][dC]-OH; thioether N-15) | 100% | 100% | 0% | 0%
3 |  |  |  |  | CCCCCCC[C@@H]1NC(=O)[C@H](Cc2ccccc2)N(C)C(=O)[C@H](CCCNC(=N)N)NC(=O)[C@H](Cc2ccc(C(=O)O)cc2)NC(=O)[C@H](Cc2ccc(-c3ccccc3OCC(=O)O)cc2)NC(=O)[C@H](C)N(C)C(=O)[C@H]([C@@H](C)CC)NC(=O)[C@H](Cc2ccccc2)N(C)C(=O)[C@H](Cc2ccc(O)cc2)NC(=O)[C@H](Cc2c[nH]c3cc(O)ccc23)NC(=O)[C@H](C)NC(=O)CN(CCCC(=O)O)C(=O)CSC[C@H](C(=O)O)NC(=O)[C@H](Cc2ccccc2)N(C)C(=O)[C@H](C)N(C)C1=O [Myostatin_99_v373] ({CH2CO}-[Gly(N(CH2)3COOH)]A[Trp(6-OH)]Y[NMeF]I[NMeA][X3][Phe(4-COOH)]R[NMeF][X1][NMeA][NMeF][dC]-OH; thioether N-15) | 100% | 100% | 47% | 0%
4 | 100% | 99% | 0% | 0% | CCCCCCC[C@@H]1NC(=O)[C@H](Cc2ccccc2)N(C)C(=O)[C@H](CCCNC(=N)N)NC(=O)[C@H](Cc2ccc(C(=O)O)cc2)NC(=O)[C@H](Cc2cccc(OCC(=O)O)c2)NC(=O)[C@H](C)N(C)C(=O)[C@H]([C@@H](C)CC)NC(=O)[C@H](Cc2ccccc2)N(C)C(=O)[C@H](Cc2ccc(O)cc2)NC(=O)[C@H](Cc2c[nH]c3c(-c4cccc(Cl)c4)cccc23)NC(=O)[C@H](C)NC(=O)CN(CCCC(=O)O)C(=O)CSC[C@H](C(=O)O)NC(=O)[C@H](Cc2ccccc2)N(C)C(=O)[C@H](C)N(C)C1=O [Myostatin_99_v378] ({CH2CO}-[Gly(N(CH2)3COOH)]A[X16]Y[NMeF]I[NMeA][Phe(3-OCH2COOH)][Phe(4-COOH)]R[NMeF][X1][NMeA][NMeF][dC]-OH; thioether N-15) |  |  |  | 
